Results on three compounds are retold here after patent publication US9833466B2, “Treatment of leukemia with histone deacetylase inhibitors” (Acetylon Pharmaceuticals Inc., priority 2014, dated 2017).

The test system of test [1] is HL-60, NB4, MV4-11, Kasumi-1, THP-1, and MOLM-13. Nature of the test: Single agent activity on viability in AML cell lines. Format: cell-based. The note with it: for viability IC50 relative to HDAC selective range: 72 hours, six AML cell lines. The procedure:
FIGS. 3A-D show the single agent activity on viability in AML cell lines. Briefly, each of the following cell lines: HL-60, THP-1, MV-4-11, Kasumi-1, NB4, and MOLM-13 were exposed to increasing concentrations of either Compound B (FIG. 3A), Compound A (FIG. 3B), Compound E (FIG. 3C), or azacitidine (FIG. 3D) to determine their response to drug treatment. […] The panel of cell lines was also treated with azacitidine to measure their sensitivity.
FIGS. 8A-F show the single agent activity on viability in AML cell lines. […] Viability was calculated as a percentage of control (DMSO treated cells). Growth inhibition curves were generated using GraphPad Prism 6.
FIG. 17. […] (B-D) MV4-11 cells were treated with indicated concentrations of compounds. (B) Surface levels of myeloid differentiation marker CD11b were determined by FACS at 72 h post-treatment. […] (C) Cell cycle was assessed by flow cytometry after incorporation of EdU and staining with Far Red at 72 h post-treatment. The distribution of cells among G0/G1 phase, G2/M phase, S phase and subG1 phase was determined. […] (D) Apoptosis was assessed by flow cytometry via measuring Annexin V binding and cellular permeability to propidium iodide at 96 h post-treatment. The relative fraction of cells that were live, in early apoptosis, in late apoptosis or dead was then determined.

Test [2] relates to HDAC1, HDAC2, HDAC3 and HDAC6. Description: HDAC selectivity of the inhibitor panel. Format: biochemical. The note with it: HDAC isoform(s) the inhibitor is selective for. On the procedure:
Compounds for testing are diluted in DMSO to 50 fold the final concentration and a ten point three fold dilution series is made. The compounds are diluted in assay buffer (50 mM HEPES, pH 7.4, 100 mM Kill, 0.001% Tween-20, 0.05% BASE, 20 μM TEC) to 6 fold their final concentration. The HDAC enzymes (purchased from BPS Biosciences) are diluted to 1.5 fold their final concentration in assay buffer. The dipeptide substrate and trypsin at 0.05 μM final concentration are diluted in assay buffer at 6 fold their final concentration. The final enzyme concentrations to use in these assays are 3.3 ng/ml (HDAC1), 0.2 ng/ml (HDAC2), 0.08 ng/ml (HDAC3) and 2 ng/ml (HDAC6). The final substrate concentrations to use are 16 μM (HDAC1), 10 μM (HDAC2), 17 μM (HDAC3) and 14 μM (HDAC6). Five μ1 of compound and 20 μl of enzyme are added to wells of a black, opaque 384 well plate in duplicate. Enzyme and compound are incubated together at room temperature for 10 min. Five μ1 of substrate is added to each well, the plate is shaken for 60 seconds and placed into a Victor 2 microliter plate reader. The development of fluorescence is monitored for 60 min. and the linear rate of the reaction is calculated. The IC50 is determined using Graph Pad Prism by a four parameter curve fit.
The following HDAC inhibitors were used to evaluate the relationship between HDAC selectivity and the viability of AML cell lines upon exposure to the HDAC inhibitor: […]

Test [3] has as its system MV4-11. Nature of the test: Surface CD11b by FACS in MV4-11. The note with it: single agent, 72 h. The class given is cell-based. On the procedure: (§1) The distribution of cells among G0/G1 phase, G2/M phase, S phase and subG1 phase was determined. […] The relative fraction of cells that were live, in early apoptosis, in late apoptosis, or dead was then determined.
(§2) MV4-11 cells were treated with Compound E or with Compound A or with Compound B as single agent or in combination with azacitidine at indicated doses. FIGS. 12A, 12C, and 12E show surface levels of CD11b determined by FACS at 72 h post-treatment. FIGS. 12B, 12D, and 12F show assessment of apoptosis by FACS (as in, e.g., FIG. 9C) at 96 h post-treatment.
(§3) FIG. 17. […] (A) Indicated AML cell lines were exposed to increasing concentrations of Compound J to confirm their sensitivity to HDAC1/2 inhibition. (B-D) MV4-11 cells were treated with indicated concentrations of compounds. (B) Surface levels of myeloid differentiation marker CD11b were determined by FACS at 72 h post-treatment. […] (C) Cell cycle was assessed by flow cytometry after incorporation of EdU and staining with Far Red at 72 h post-treatment. The distribution of cells among G0/G1 phase, G2/M phase, S phase and subG1 phase was determined. […] (D) Apoptosis was assessed by flow cytometry via measuring Annexin V binding and cellular permeability to propidium iodide at 96 h post-treatment. The relative fraction of cells that were live, in early apoptosis, in late apoptosis or dead was then determined.
(In general: Flow cytometry measures light scatter and fluorescence of single cells or particles in a stream.)

The subject of test [4] is MV4-11. Description: Cell cycle by flow cytometry (EdU, Far Red) in MV4-11. Format: cell-based. The note with it: single agent, 72 h. The procedure: as §1, §3
Test [5] concerns bone marrow samples derived from AML patients. Description: Primary AML sample colony formation assay. Format: cell-based. The note with it: Homo sapiens, 336 h; 6 bone marrow samples from AML patients; 14 days; single agent; read-out: median IC50, colony formation. The procedure: (A) 6 bone marrow samples derived from AML patients were cultured in methylcellulose-based medium and treated with increasing concentrations of Compound A, Compound J and azacitidine for 14 days when the colonies reach reasonable size. IC50 values for each drug are plotted. […] IC50 values were plotted for each patient sample.

Test [6] deals with AML blast freshly derived from bone marrow of AML patients. Description: Ex vivo proliferation of AML blast freshly derived from bone marrow. The class given is cell-based. The note with it: Homo sapiens; 5 bone marrow samples from AML patients; flow cytometry at 96 h; single agent; read-out: median IC50, live AML cells. The procedure:
(A-B), 5 bone marrow samples derived from AML patients were treated with increasing concentrations of azacitidine, Compound A and Compound J and live AML cells were quantified by flow cytometry at 96 h. IC50 values (A) and AUC values (B) were plotted. […] The relative potency of the three drugs are Compound J>azacitidine>Compound A, consistent with the result in FIG. 2. (C) 5 bone marrow samples derived from AML patients were treated with increasing doses of azacitidine with Compound J and live AML cells were quantified by flow cytometry at 96 h. The combination index (Comb IDX) were calculated and median Comb IDX values were plotted.

The test system of test [7] is MV4-11. Description: Apoptosis by Annexin V / propidium iodide flow cytometry in MV4-11. The class given is cell-based. The note with it: single agent, 96 h. The procedure: as §1, §2, §3

With `Nc1cc(F)ccc1NC(=O)c1cnc2c(C3CC3)c(N3CCNCC3)ccc2c1` [Compound H], the “viability IC50 relative to HDAC selective range” value in test [1] was “beyond its selective range”. In addition, the Selectivity result in test [2] is on record as “HDAC3”. Further, the “percentage of CD11b positive cells” value with MV4-11 [3] was “increased the percentage of CD11b positive cells”.

Turning to `O=C(NO)c1cnc(NC2(c3cccc(F)c3)CCCCC2)nc1` [Compound C, 2-((1-(3-fluorophenyl)cyclohexyl)amino)-N-hydroxypyrimidine-5-carboxamide], in test [1], the “viability IC50 relative to HDAC selective range” value is “beyond its selective range”. Moreover, in test [2], the Selectivity result is given as “HDAC6”. In addition, the “percentage of CD11b positive cells” value with MV4-11 [3] is recorded as “no effect on CD11b positive cells”.

Turning to `Nc1ccc(-c2cccs2)cc1NC(=O)c1ccc2nc(N3CCNCC3)ccc2c1` [Compound J, N-(2-amino-5-(thiophen-2-yl)phenyl)-2-(piperazin-1-yl)quinoline-6-carboxamide], the cell viability result in test [1] (AML cell lines) is on record as “reduces cell viability”. For the same compound, the cell cycle arrest result in the test on MV4-11 [4] is listed as “induced cell cycle arrest as well as apoptosis”. In addition, the figures for the IC50 in test [5] and in test [6] were 2950 nM and 600 nM, respectively. For the same compound, in the test on MV4-11 [7], the “apoptosis relative to control cells” value was “increase in apoptosis relative to control cells”. The “percentage of CD11b positive cells” value in the test on MV4-11 [3] is reported as “highest potency increasing percentage of CD11b positive cells”.
